From patent publication US8697683B2, “Azetidinyl diamides as monoacylglycerol lipase inhibitors” (Janssen Pharmaceutica, NV, priority 2009, dated 2014)

Tests used:
[1] = system: CCI-induced cold hypersensitivity; test: Chronic Constriction Injury (CCI)-Induced Model of Neuropathic Pain-Cold Acetone-Hypersensitivity Test; type: in vivo; details: Sprague-Dawley rats, 30 mg/kg p.o., HPβCD vehicle, last time point 4 h
Experimental: Fourteen to 35 days following CCI surgery, subjects were placed in elevated observation chambers containing wire mesh floors, and five applications of acetone (0.05 mL/application separated by about 5 min) were spritzed onto the plantar surface of the paw using a multidose syringe. An abrupt withdrawal or lifting of the paw was considered a positive response. The number of positive responses was recorded for each rat over the five trials. Following baseline withdrawal determinations, compounds were administered in the indicated vehicle, by the indicated route (see Table 6). The number of withdrawals was re-determined 1 to 4 h after compound administration.

tactile allodynia = test: Spinal Nerve Ligation (SNL) Model of Neuropathic Pain-Tactile Allodynia Test; type: in vivo, rat; details: L5 SNL rats, 30 mg/kg p.o., HPβCD vehicle, last time point 4 h
Description: For lumbar 5 (L5) spinal nerve ligation (SNL) studies, anesthesia was induced and maintained on isoflurane inhalation. Fur was clipped over the dorsal pelvic area, and a 2-cm skin incision was made just left of midline over the dorsal aspect of the L4-S2 spinal segments, followed by separation of the paraspinal muscles from spinous processes. The transverse process of L6 was then carefully removed, and the L5 spinal nerve was identified. The left L5 spinal nerve was then ligated tightly with 6-0 silk thread, the muscle was sutured with 4-0 vicryl, and the skin was closed with wound clips. Following surgery, s.c. saline (5 mL) was administered. Behavioral testing was performed four weeks post-ligation. Following baseline von Frey determinations to verify the presence of mechanical allodynia, L5 SNL rats were orally administered the indicated vehicle or drug. […] which the paw ipsilateral to the nerve ligation was withdrawn from the application of a series of calibrated von Frey filaments (0.4, 0.6, 1.0, 2.0, 4, 6, 8 and 15 g; Stoelting; Wood Dale, Ill.). Beginning at an intermediate stiffness (2.0 g), filaments were applied to the mid-plantar hind paw for approximately 5 seconds. to determine the response threshold, a brisk paw withdrawal led to the presentation of the next lighter stimulus, whereas a lack of a withdrawal response led to the presentation of the next stronger stimulus. A total of four responses after the first threshold detection were collected. The 50% withdrawal thresholds were interpolated by the method of Dixon, Efficient analysis of experimental observations. Annu. Rev. Pharmacol. […] Neurosci. […] Threshold data from von Frey filament testing were reported as withdrawal threshold in grams. Data were normalized and results are presented as % MPE (maximum possible effect) of the drug calculated according to the following formula: [formula]

[2] = system: CFA induced paw pressure hypersensitivity; test: CFA-Induced Paw Pressure Hypersensitivity; type: in vivo; details: rat, dose 30, s.c., HPβCD vehicle, time 1 h
Experimental: Prior to testing, rats were acclimated to the handling procedure twice a day for a period of two days. […] The endpoint was automatically reached upon hindpaw withdrawal, and the terminal force was noted (in grams). An initial (baseline) response threshold to the mechanical stimulus was recorded for each animal prior to the injection of complete Freund's adjuvant (CFA). Forty hr following intraplantar CFA injection, the response threshold of the animal to the mechanical stimulus was re-evaluated and compared to the animal's baseline response threshold. A response was defined as a withdrawal of the hindpaw, a struggling to remove the hindpaw or vocalization. […] Immediately following the post-CFA threshold assessment, rats were administered the indicated test compound or vehicle. Post-treatment withdrawal thresholds were assessed at 1 h. Paw withdrawal thresholds were converted to percent reversal of hypersensitivity according to the following formula: % reversal=[(post treatment response−predose response)/(baseline response−predose response)]×100.

[3] = murine model of acute inflammation; cited from earlier work

For `O=C(c1ccccc1)N1CCN(C2CN(C(=O)c3ccc(-c4ccccc4)cc3)C2)CC1` [Cpd 5, 1-[1-(Biphenyl-4-ylcarbonyl)azetidin-3-yl]-4-(phenylcarbonyl)piperazine], which peak percent inhibition [1] is on record?
Its peak percent inhibition is 26.7%.

For `O=C(c1cscn1)N1CCN(C2CN(C(=O)c3sc4cc(C(F)(F)F)ccc4c3Cl)C2)CC1` [Cpd 335, 1-(1-{[3-Chloro-6-(trifluoromethyl)-1-benzothiophen-2-yl]carbonyl}azetidin-3-yl)-4-(1,3-thiazol-4-ylcarbonyl)piperazine], which “peak % MPE” value (tactile allodynia) is on record?
The value was 50.1%.

For `O=C(c1ccc2c(ccn2-c2ccc(F)cc2)c1)N1CC(N2CCN(C(=O)c3nccs3)CC2)C1` [Cpd 487, 1-(4-Fluorophenyl)-5-({3-[4-(1,3-thiazol-2-ylcarbonyl)piperazin-1-yl]azetidin-1-yl}carbonyl)-1H-indole], which percent reversal [2] is on record?
Its percent reversal is 61.8%.

What about the peak percent inhibition [1] of the same compound?
The peak percent inhibition was 100%.

What about the “peak % MPE” value (tactile allodynia) of the same compound?
Its value is 61.2%.

With `O=C(c1ccc2c(ccn2-c2ccc(F)c(F)c2)c1)N1CC(N2CCN(C(=O)c3nccs3)CC2)C1` [Cpd 1362, 1-(3,4-Difluorophenyl)-5-({3-[4-(1,3-thiazol-2-ylcarbonyl)piperazin-1-yl]azetidin-1-yl}carbonyl)-1H-indole] as the compound, how does the percent reversal [2] read?
The percent reversal was 56.7%.

And the “peak % MPE” value (tactile allodynia)?
The value was 84.3%.

Which antinociceptive effect [3] does the source give for `O=C(Nc1cccc(-c2ccccc2)c1)OC1CCCCC1` [URB602] here?
Its antinociceptive effect is “showed an antinociceptive effect”.
